Assay results reported in patent publication US11479539B2, “Small molecule modulators of the BTB domain of Keap1” (MedImmune Limited, priority 2017, dated 2022).

What follows are compounds tested against Keap1 (Homo sapiens (Human), UniProt Q14145) (assay: HEK293 ARE luciferase assay). Conditions: HEK-293 ARE firefly luciferase transiently transfected cells; 18 h incubation; mean of 1 to 20 individual measurements.
Type: cell-based
Description: The purpose of this assay is to identify small molecule inhibitors of Keap1, preventing Keap1 binding to Nrf2, and thus activating the Nrf2 signalling pathway in HEK-293 ARE firefly luciferase transiently transfected cells. HEK-293 cells express wild-type Keap1 protein and therefore have low constitutive levels of Nrf2 protein and Nrf2-dependent transcription. […] When Keap1 is inhibited, Nrf2 signalling is activated, and there is an increase in luciferase expression and light emission.
Cryopreserved HEK ARE luciferase cells were rapidly thawed in a 37° C. water bath and resuspended in assay culture medium (DMEM, 10% FCS, 2 mM L-glutamine). The cell suspension was pelleted by centrifugation ([…]; 300 g) using a Heraeus benchtop centrifuge. Supernatant was removed and the pellet was gently resuspended in 5 mL culture medium per vial. Cell viability and cell number was measured using an Invitrogen Countess automated cell counter (typical viability 80%), and cells were diluted to a density of 5.0×10^5 cells/mL.
Cells were then plated out into white 384-well plates (Greiner 781080) using a Multidrop Combi, 20 μL/well, to give 10,000 cells/well. As appropriate, test compounds had been added to wells prior to dispensing cells using an Echo 555 acoustic dispenser (Labcyte). Plates were left at room temperature for ˜10 min to promote even cell settling across the plate before incubation for 18 h at 37° C., 95% humidity and 5% CO2.
After 18 h incubation, plates were removed from the incubator and allowed to cool to room temperature for 30 min, before 10 μL per well SteadyGlo reagent detection reagent was added (as per manufacturer's instructions, 10 min before required 10 mL room temperature buffer was added to one vial of lyophilised substrate and inverted several times to fully dissolve). Plates were then incubated in the dark for 30 min before reading on an Envision plate reader.
Compounds were acoustically dispensed using a Labcyte Echo, using a 10 pt dose curve with a top concentration of 100 μM. Assay wells were backfilled with DMSO to a total of 60 nL to maintain 0.3% (v/v) DMSO through the assay.
The Stimulator signal was defined using 30 μM tert-butyl hydroquinone (tBHQ) and the Neutral signal by DMSO vehicle control. All calculations were performed using GeneData.
In IBIS Column Calculations, Assay Type was set to ‘Stimulator’, and the Activity Threshold was set to 50.
The mean values were calculated from anywhere from 1 to 20 individual measurements.

Sequence of Keap1 (Q14145 whole entry): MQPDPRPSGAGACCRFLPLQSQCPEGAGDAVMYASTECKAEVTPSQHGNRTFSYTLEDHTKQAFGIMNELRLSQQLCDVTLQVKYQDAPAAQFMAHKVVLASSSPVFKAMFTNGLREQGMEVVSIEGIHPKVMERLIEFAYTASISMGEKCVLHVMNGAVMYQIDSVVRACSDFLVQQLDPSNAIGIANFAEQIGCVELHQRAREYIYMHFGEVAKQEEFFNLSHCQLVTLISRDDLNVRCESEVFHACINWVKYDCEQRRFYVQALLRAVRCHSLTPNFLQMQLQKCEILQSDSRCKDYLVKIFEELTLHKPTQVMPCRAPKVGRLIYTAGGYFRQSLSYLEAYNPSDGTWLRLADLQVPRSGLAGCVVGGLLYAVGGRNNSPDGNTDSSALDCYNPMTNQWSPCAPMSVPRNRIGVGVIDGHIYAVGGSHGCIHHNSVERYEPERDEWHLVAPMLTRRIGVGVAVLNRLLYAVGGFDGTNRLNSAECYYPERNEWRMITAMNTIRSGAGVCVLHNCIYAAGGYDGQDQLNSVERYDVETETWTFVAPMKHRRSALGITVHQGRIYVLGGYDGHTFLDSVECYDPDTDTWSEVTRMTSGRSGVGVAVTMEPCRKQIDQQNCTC

Row | SMILES | EC50
1 | COC1(c2ncc(F)cc2F)C=C(C#N)C(=O)C2(CC2)C1 (stereo not shown) [Compound 156, 7-(3,5-difluoropyridin-2-yl)-7-methoxy-4-oxospiro[2.5]oct-5-ene-5-carbonitrile] | 249 nM
2 | COC1(c2ncccc2C(F)F)C=C(C#N)C(=O)C(C)(C)C1 (single isomer, unassigned) [Compound 5, 3-(3-(difluoromethyl)pyridin-2-yl)-3-methoxy-5,5-dimethyl-6-oxocyclohex-1-enecarbonitrile] | 10 nM
3 | COC1(c2ncc(Cl)cc2C(F)(F)F)C=C(C#N)C(=O)C(C)(C)C1 (single isomer, unassigned) [Compound 208, 3-[5-chloro-3-(trifluoromethyl)pyridin-2-yl]-3-methoxy-5,5-dimethyl-6-oxocyclohex-1-ene-1-carbonitrile] | 231 nM
4 | COc1cc(-c2cc(F)cnc2C2(OC)C=C(C#N)C(=O)C(C)(C)C2)c(Cl)cn1 (single isomer, unassigned) [Compound 218, 3-(5′-chloro-5-fluoro-2′-methoxy[3,4′-bipyridin]-2-yl)-3-methoxy-5,5-dimethyl-6-oxocyclohex-1-ene-1-carbonitrile] | 23 nM
5 | CO[C@]1(c2ncc(F)cc2-c2ccns2)C=C(C#N)C(=O)C(C)(C)C1 [Compound 80, (S)-3-(5-fluoro-3-isothiazol-5-yl-2-pyridyl)-3-methoxy-5,5-dimethyl-6-oxo-cyclohexene-1-carbonitrile] | 2 nM
6 | COC1(c2ncc(F)cc2-c2ccnc(C)c2C)C=C(C#N)C(=O)C(C)(C)C1 (stereo not shown) [Compound 175, 3-(5-fluoro-2′,3′-dimethyl[3,4′-bipyridin]-2-yl)-3-methoxy-5,5-dimethyl-6-oxocyclohex-1-ene-1-carbonitrile] | 174 nM
7 | COC1(c2ncc(F)cc2-c2cnc(C)s2)C=C(C#N)C(=O)C(C)(C)C1 (stereo not shown) [Compound 168, 3-[5-fluoro-3-(2-methyl-1,3-thiazol-5-yl)pyridin-2-yl]-3-methoxy-5,5-dimethyl-6-oxocyclohex-1-ene-1-carbonitrile] | 12 nM
8 | COC1(c2ncc(F)cc2-c2cncc(Cl)c2)C=C(C#N)C(=O)C(C)(C)C1 (stereo not shown) [Compound 185, 3-(5′-chloro-5-fluoro[3,3′-bypyridin]-2-yl)-3-methoxy-5,5-dimethyl-6-oxocyclohex-1-ene-1-carbonitrile] | 8 nM
9 | COC1(c2ncc(F)cc2C#CC(C)C)C=C(C#N)C(=O)C(C)(C)C1 (single isomer, unassigned) [Compound 100, 3-[5-fluoro-3-(3-methylbut-1-yn-1-yl)pyridin-2-yl]-3-methoxy-5,5-dimethyl-6-oxocyclohex-1-ene-1-carbonitrile] | 77 nM
10 | COC1(c2ccccc2C(F)(F)F)C=C(C#N)C(=O)C(C)(C)C1 (stereo not shown) [Compound 19, 3-methoxy-5,5-dimethyl-6-oxo-3-[2-(trifluoromethyl)phenyl]cyclohexene-1-carbonitrile] | 1240 nM
11 | COC1(c2ncc(F)cc2-c2cncc(OC(F)F)c2)C=C(C#N)C(=O)C(C)(C)C1 (single isomer, unassigned) [Compound 223, 3-[5′-(difluoromethoxy)-5-fluoro[3,3′-bipyridin]-2-yl]-3-methoxy-5,5-dimethyl-6-oxocyclohex-1-ene-1-carbonitrile] | 14 nM
12 | COC1(c2ncc(F)cc2F)C=C(C#N)C(=O)C2(CC2)C1 (single isomer, unassigned) [Compound 60, 7-(3,5-difluoropyridin-2-yl)-7-methoxy-4-oxospiro[2.5]oct-5-ene-5-carbonitrile] | 153 nM
13 | COC1(c2ncc(F)cc2-c2ccc3ccnn3c2)C=C(C#N)C(=O)C(C)(C)C1 (single isomer, unassigned) [Compound 203, 3-[5-fluoro-3-(pyrazolo[1,5-a]pyridin-6-yl)pyridin-2-yl]-3-methoxy-5,5-dimethyl-6-oxocyclohex-1-ene-1-carbonitrile] | 6 nM
14 | COC1(c2ncc(F)cc2-c2cnnc(C)c2)C=C(C#N)C(=O)C(C)(C)C1 (single isomer, unassigned) [Compound 209, 3-[5-fluoro-3-(6-methylpyridazin-4-yl)pyridin-2-yl]-3-methoxy-5,5-dimethyl-6-oxocyclohex-1-ene-1-carbonitrile] | 15 nM
15 | COC1(c2cccc(-c3cnn(C)c3)n2)C=C(C#N)C(=O)C(C)(C)C1 (stereo not shown) [Compound 111, 3-methoxy-5,5-dimethyl-3-[6-(1-methyl-1H-pyrazol-4-yl)pyridin-2-yl]-6-oxocyclohex-1-ene-1-carbonitrile] | 65 nM
16 | COC1(c2ncccc2C(F)(F)F)C=C(C#N)C(=O)C(C)(C)C1 (stereo not shown) [Compound 122, 3-methoxy-5,5-dimethyl-6-oxo-3-[3-(trifluoromethyl)pyridin-2-yl]cyclohex-1-ene-1-carbonitrile] | 43 nM
17 | COC1(c2ncc(F)cc2C)C=C(C#N)C(=O)C(C)(C)C1 (stereo not shown) [Compound 137, 3-(5-fluoro-3-methylpyridin-2-yl)-3-methoxy-5,5-dimethyl-6-oxocyclohex-1-ene-1-carbonitrile] | 47 nM
18 | COC1(c2ncccc2-c2ccccc2)C=C(C#N)C(=O)C(C)(C)C1 (stereo not shown) [Compound 7, 3-methoxy-5,5-dimethyl-6-oxo-3-(3-phenyl-2-pyridyl)cyclohexene-1-carbonitrile] | 82 nM
19 | COC1(c2ncc(F)cc2-c2cncc(Cl)c2)C=C(C#N)C(=O)C(C)(C)C1 (single isomer, unassigned) [Compound 88, 3-[3-(5-chloro-3-pyridyl)-5-fluoro-2-pyridyl]-3-methoxy-5,5-dimethyl-6-oxo-cyclohexene-1-carbonitrile] | 9 nM
20 | COC1(c2ncc(F)cc2Cl)C=C(C#N)C(=O)C(C)(C)C1 (single isomer, unassigned) [Compound 224, 3-(3-chloro-5-fluoropyridin-2-yl)-3-methoxy-5,5-dimethyl-6-oxocyclohex-1-ene-1-carbonitrile] | 14 nM
21 | COC1(c2cccc(-c3ccnn3C)n2)C=C(C#N)C(=O)C(C)(C)C1 (stereo not shown) [Compound 106, 3-methoxy-5,5-dimethyl-3-(6-(1-methyl-1H-pyrazol-5-yl)pyridin-2-yl)-6-oxocyclohex-1-ene-1-carbonitrile] | 120 nM
22 | COC1(c2ncc(F)cc2-c2cncc(C(F)(F)F)c2)C=C(C#N)C(=O)C(C)(C)C1 (stereo not shown) [Compound 186, 3-[5-fluoro-5′-(trifluoromethyl)[3,3′-bypyridin]-2-yl]-3-methoxy-5,5-dimethyl-6-oxocyclohex-1-ene-1-carbonitrile] | 75 nM
23 | COC1(c2scnc2C)C=C(C#N)C(=O)C(C)(C)C1 (single isomer, unassigned) [Compound 43, 3-methoxy-5,5-dimethyl-3-(4-methylthiazol-5-yl)-6-oxocyclohex-1-enecarbonitrile] | 129 nM
24 | COC1(c2nc(C)cs2)C=C(C#N)C(=O)C(C)(C)C1 (single isomer, unassigned) [Compound 36, 3-methoxy-5,5-dimethyl-3-(4-methylthiazol-2-yl)-6-oxocyclohex-1-enecarbonitrile] | 96 nM
25 | COC1(c2nc(C(F)(F)F)cs2)C=C(C#N)C(=O)C(C)(C)C1 (single isomer, unassigned) [Compound 33, 3-methoxy-5,5-dimethyl-6-oxo-3-(4-(tri-fluoromethyl)thia-zol-2-yl)cyclohex-1-enecarbonitrile] | 383 nM
